Assay results published in the supplement of paper PMC8671470.
± gives the standard deviation of the averaged measurements.

Tests used:
Conditions in all cases: 72 h
BV-173 [1] = system: BV-173
Procedure, shortened: (§1)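 Fifteen myeloid leukaemia lines in RPMI 1640 were treated for 72 h at 37 °C and 5% CO2 with five tenfold doses from 1 to 10,000 nM, in duplicate. ATP luminescence was normalised to vehicle and to a positive control at 10 µM, then fitted with a four-parameter log-logistic model. The IC50 came from these fits.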

HEL [2] = system: HEL
Procedure, shortened: as §1

HL-60 [3] = system: HL-60
Procedure, shortened: as §1

K-562 [4] = system: K-562
Procedure, shortened: as §1

KCL-22 [5] = system: KCL-22
Procedure, shortened: as §1

KG-1 [6] = system: KG-1
Procedure, shortened: as §1

KU-812 = system: KU-812
Procedure, shortened: as §1

LAMA-84 [7] = system: LAMA-84
Procedure, shortened: as §1

ML-2 [8] = system: ML-2
Procedure, shortened: as §1

MOLM-13 = system: MOLM-13
Procedure, shortened: as §1

MV4-11 [9] = system: MV4-11
Procedure, shortened: as §1

Mono-Mac-6 [10] = system: Mono-Mac-6
Procedure, shortened: as §1

NOMO-1 = system: NOMO-1
Procedure, shortened: as §1

SHI-1 [11] = system: SHI-1
Procedure, shortened: as §1

THP-1 = system: THP-1
Procedure, shortened: as §1

HL-60 [12] = assay: cell viability (% survival relative to DMSO control); higher = less cytotoxic
Procedure, shortened: (§2)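 For each screen, HL-60 cells in RPMI 1640 with 10% FBS carried either DMSO or 100 nM of one of three metabolic inhibitors while the full library was applied at five tenfold concentrations, 1–10,000 nM, in duplicate. Plates were 384-well and were kept 72 h at 37 °C, 5% CO2. Viability, measured by CellTiter-Glo, was normalised to wells with DMSO and with 10 μM proteasome inhibitor. Where area under the curve appears, it was fitted by four-parameter log-logistic models in drc and PharmacoGx.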

BV-173 [13] = assay: cell viability (% survival relative to DMSO control, bortezomib = 0%); higher = less cytotoxic
Procedure, shortened: (§3)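 Fifteen myeloid leukaemia cell lines were exposed to compounds at 1, 10, 100, 1000 or 10000 nM in 384-well plates for 72 h at 37 °C and 5% CO2. Viability was read by CellTiter-Glo luminescence and normalised, with vehicle as 100% and a 10 µM positive control as 0%. Values are percent survival averaged over duplicates.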

HEL [14] = assay: as above
Procedure, shortened: as §3

HL-60 [15] = assay: as above
Procedure, shortened: as §3

K-562 [16] = assay: as above
Procedure, shortened: as §3

KCL-22 [17] = assay: as above
Procedure, shortened: as §3

KG-1 [18] = assay: as above
Procedure, shortened: as §3

LAMA-84 [19] = assay: as above
Procedure, shortened: as §3

ML-2 [20] = assay: as above
Procedure, shortened: as §3

MV4-11 [21] = assay: as above
Procedure, shortened: as §3

Mono-Mac-6 [22] = assay: as above
Procedure, shortened: as §3

SHI-1 [23] = assay: as above
Procedure, shortened: as §3

HL-60 [24] = assay: area under dose-response curve (viability, 1 nM-10 uM) (fraction (0-1)); higher = more sensitive
Procedure, shortened: as §2

NCc1ccc(-c2cccnc2)s1 [(5-Pyrid-3-YLTHIEN-2-YL)METHYLAMINE]
Conditions | IC50 (cell viability) [µM]
BV-173 [1] | > 10
HEL [2] | > 10
HL-60 [3] | > 10
K-562 [4] | > 10
KCL-22 [5] | > 10
KG-1 [6] | > 10
KU-812 | > 10
LAMA-84 [7] | > 10
ML-2 [8] | > 10
MOLM-13 | > 10
MV4-11 [9] | > 10
Mono-Mac-6 [10] | > 10
NOMO-1 | > 10
SHI-1 [11] | > 10
THP-1 | > 10

cell viability [%], HL-60 [12]
Conditions | 0.001 µM | 0.01 µM | 0.1 µM | 1 µM | 10 µM
co-treatment: AZD3965 100 nM | 103 ± 3.5 | 78 ± 37 | 114 ± 1.4 | 97 ± 1 | 101 ± 1.1
co-treatment: DMSO vehicle | 103 ± 1.9 | 101 ± 5.8 | 109 ± 2.6 | 92.7 ± 13 | 98.43 ± 0.59
co-treatment: GSK2194069 100 nM | 105 ± 2.2 | 94.3 ± 13 | 107.2 ± 0.96 | 95.1 ± 2.1 | 96.7 ± 4.5
co-treatment: pictilisib 100 nM | 104 ± 11 | 91.2 ± 27 | 113 ± 2.4 | 92.2 ± 5.2 | 96.9 ± 2.8

Conditions | area under dose-response curve, co-treatment: AZD3965 100 nM | area under dose-response curve, co-treatment: DMSO vehicle | area under dose-response curve, co-treatment: GSK2194069 100 nM | area under dose-response curve, co-treatment: pictilisib 100 nM | cell viability, 1 nM [%] | cell viability, 10 nM [%] | cell viability, 100 nM [%] | cell viability, 1000 nM [%] | cell viability, 10000 nM [%]
BV-173 [13] | – | – | – | – | 113 | 102 | 98.7 | 104 | 87.2
HEL [14] | – | – | – | – | 105 | 103 | 104 | 109 | 104
HL-60 [15] | – | – | – | – | 99.3 | 107 | 103 | 115 | 121
HL-60 [24] | < 0.0301 | < 0.0301 | < 0.0301 | < 0.0301 | – | – | – | – | –
K-562 [16] | – | – | – | – | 92.7 | 122 | 96.1 | 90.4 | 94
KCL-22 [17] | – | – | – | – | 122 | 114 | 91.6 | 84.7 | 88.8
KG-1 [18] | – | – | – | – | 109 | 108 | 99.8 | 108 | 87.6
LAMA-84 [19] | – | – | – | – | 108 | 106 | 102 | 93 | 91.2
ML-2 [20] | – | – | – | – | 104 | 108 | 97.6 | 113 | 96.5
MV4-11 [21] | – | – | – | – | 91.6 | 123 | 104 | 110 | 89.6
Mono-Mac-6 [22] | – | – | – | – | 108 | 103 | 95.7 | 104 | 89
SHI-1 [23] | – | – | – | – | 107 | 115 | 105 | 97 | 100
